Data: patent US10265329B2, “Altering steroid metabolism for treatment of steroid-dependent disease” (THE CLEVELAND CLINIC FOUNDATION, priority 2015, dated 2019)
Where a chain is given by its changes, count along the chain named.

Experiments:
wild-type AR (LAPC4) = target: T1, wild-type AR (LAPC4) (Homo sapiens, UniProt P10275); test: AR competition assay with [3H]-R1881 in LAPC4 cells; assay type: binding; conditions: for affinity for wild-type AR: [3H]-R1881, 30 min
T1 construct: endogenous in cells; host or cells: LAPC4
T1 sequence (P10275 1-920): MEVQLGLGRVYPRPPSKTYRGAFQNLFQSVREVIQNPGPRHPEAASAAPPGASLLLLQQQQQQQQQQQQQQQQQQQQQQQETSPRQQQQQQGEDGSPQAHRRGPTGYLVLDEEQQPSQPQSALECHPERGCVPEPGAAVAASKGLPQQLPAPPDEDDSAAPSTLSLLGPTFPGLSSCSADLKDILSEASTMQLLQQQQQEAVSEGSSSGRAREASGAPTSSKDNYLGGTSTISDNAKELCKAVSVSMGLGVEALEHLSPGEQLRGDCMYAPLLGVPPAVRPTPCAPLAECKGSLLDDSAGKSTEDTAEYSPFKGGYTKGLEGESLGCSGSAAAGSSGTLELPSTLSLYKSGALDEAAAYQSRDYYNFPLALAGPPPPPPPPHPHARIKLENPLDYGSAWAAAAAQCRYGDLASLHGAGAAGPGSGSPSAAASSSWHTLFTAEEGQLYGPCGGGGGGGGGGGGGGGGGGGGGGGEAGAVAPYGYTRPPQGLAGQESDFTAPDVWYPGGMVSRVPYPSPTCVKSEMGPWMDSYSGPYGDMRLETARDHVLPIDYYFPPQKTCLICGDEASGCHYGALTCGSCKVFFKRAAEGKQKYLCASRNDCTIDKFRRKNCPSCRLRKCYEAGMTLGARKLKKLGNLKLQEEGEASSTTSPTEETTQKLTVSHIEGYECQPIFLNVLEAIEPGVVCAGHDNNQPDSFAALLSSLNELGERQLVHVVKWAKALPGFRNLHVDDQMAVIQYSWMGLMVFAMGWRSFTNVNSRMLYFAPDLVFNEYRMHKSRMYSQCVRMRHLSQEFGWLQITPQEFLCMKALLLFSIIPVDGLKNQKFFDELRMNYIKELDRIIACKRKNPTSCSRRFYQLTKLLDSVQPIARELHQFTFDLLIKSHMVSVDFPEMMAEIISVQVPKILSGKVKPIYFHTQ
Description: (§1) Cells were cultured in serum-free medium for 48 h and then treated with [^3H]-R1881 and the indicated concentrations of D4A, Abi, enzalutamide, R1881 or bicalutamide for 30 min. Cells were washed with 1×PBS 4 times and 0.9% NaCl solution twice before lysis with RIPA buffer.
(§2) Cells were starved with phenol red-free and serum free-medium for at least 48 h and then treated with [^3H]-R1881 and the indicated concentrations of drugs for 30 min. Cells were washed thoroughly with PBS and then lysed with […].

mutant AR (LNCaP) = target: T2, mutant AR (LNCaP) (Homo sapiens, UniProt P10275, T878A); test: AR competition assay with [3H]-R1881 in LNCaP cells; assay type: binding; conditions: for affinity for T877A mutant AR: [3H]-R1881, 30 min
T2 construct: endogenous in cells; host or cells: LNCaP
T2 sequence (P10275 1-920 T878A): T1 sequence (P10275 1-920) with T878A
Description: as §1, §2

| Compound | affinity for wild-type AR (wild-type AR (LAPC4)) | affinity for T877A mutant AR (mutant AR (LNCaP)) | IC50 (wild-type AR (LAPC4); competition with 0.1 nM [3H]-R1881, read-out: IC50, affinity for wild-type AR) [nM] | IC50 (mutant AR (LNCaP); competition with 0.1 nM [3H]-R1881, read-out: IC50, affinity for mutant AR) [nM] |
| --- | --- | --- | --- | --- |
| C[C@]12CC[C@@H](O)C[C@@H]1CC[C@@H]1[C@@H]2CC[C@]2(C)C(c3cccnc3)=CC[C@@H]12 [Compound 3α-OH-5α-Abi, 17-(3-pyridyl)-5α-androsta-16-ene-3α-ol] | lower | lower |  |  |
| C[C@]12CCC(=O)C[C@@H]1CC[C@@H]1[C@@H]2CC[C@]2(C)C(c3cccnc3)=CC[C@@H]12 [Compound 5α-Abi, 17-(3-pyridyl)-5α-androsta-16-ene-3-one] | comparable to that of D4A | comparable to that of D4A |  |  |
| C[C@]12CCC(=O)C=C1CC[C@@H]1[C@@H]2CC[C@]2(C)C(c3cccnc3)=CC[C@@H]12 [Compound D4A, 17-(3-Pyridyl)androsta-4,16-dien-3-one] |  |  | 7.9 | 5.3 |
